Test results taken from US7026339B2, “Inhibitors of HCV NS5B polymerase” (priority 2003, dated 2006).

test system: HuH-7 replicon cells 5–15 and 9–13 (HCV replication); assay: Inhibition of viral replication in HuH-7 replicon cells (HCV RNA / GAPDH RNA by multiplex RT-PCR); type: cell-based; conditions: Hepatitis C virus, 72 h; inhibiting 50% of replication; HuH-7 replicon cells, 3 days; read-out: IC50
In short: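 HCV and GAPDH RNA were measured by multiplex TaqMan RT-PCR (HCV 5′ untranslated region) after 3-day compound treatment at 37 °C, final 100 μM–1 μM in 1% DMSO. Cells were plated 24 h beforehand at 7×10^3/well. Read-out: HCV-to-GAPDH ratio expressed as percent control versus untreated cells.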

Question: With `COc1cccc(CC(=O)N/N=C/c2ccccc2OS(=O)(=O)c2ccc(Oc3cccnc3)cc2)c1` [Compound 217, 2-((E)-{2-[2-(3-methoxyphenyl)acetyl]hydrazono}methyl)-phenyl 4-(pyridin-3-yloxy)benzenesulfonate] as the molecule, how does the IC50 read?
Answer: 5 to 50 µM

Question: `COc1cccc(CC(=O)N/N=C/c2ccccc2OS(=O)(=O)c2ccc(Oc3ncc(C(F)(F)F)cc3Cl)cc2)c1` [Compound 218, 2-((E)-{2-[2-(3-methoxyphenyl)acetyl]hydrazono}methyl)-phenyl 4-{[3-chloro-5-(trifluoromethyl)pyridin-2-yl]oxy}benzenesulfonate] was tested. Which IC50 did it give?
Answer: > 50 µM

Question: How did the IC50 turn out when `C/C(=N\NC(=O)Cc1ccccc1)c1ccccc1OS(=O)(=O)c1ccc(C(F)(F)F)cc1` [Compound 219, 2-[(1E)-N-(phenylacetyl)ethanehydrazonoyl]phenyl4-(trifluoromethyl)benzenesulfonate] was run?
Answer: > 50 µM

Question: How did the IC50 turn out when `COc1cccc(CC(=O)N/N=C(\C)c2cc(F)ccc2OS(=O)(=O)c2ccc(C(F)(F)F)cc2)c1` [Compound 220, 4-fluoro-2-{(1E)-N-[(3-methoxyphenyl)acetyl]ethanehydrazonoyl}-phenyl 4-(trifluoromethyl)-benzenesulfonate] was run?
Answer: > 50 µM

Question: With `COc1cccc(CC(=O)N/N=C(\C)c2ccccc2OS(=O)(=O)c2ccc(C(F)(F)F)cc2)c1` [Compound 221, 2-{(1E)-N-[(3-methoxyphenyl)acetyl]ethanehydrazonoyl}-phenyl 4-(trifluoromethyl)benzenesulfonate] as the molecule, how does the IC50 read?
Answer: > 50 µM

Question: How did the IC50 turn out when `COc1cccc(CC(=O)N/N=C(\C)c2ccc(F)cc2OS(=O)(=O)c2ccc(C(F)(F)F)cc2)c1` [Compound 222, 5-fluoro-2-{(1E)-N-[(3-methoxyphenyl)acetyl]ethanehydrazonoyl}-phenyl 4-(trifluoromethyl)benzenesulfonate] was run?
Answer: > 50 µM

Question: `C/C(=N\NC(=O)Cc1ccc(Cl)c(Cl)c1)c1ccccc1OS(=O)(=O)c1ccc(C(F)(F)F)cc1` [Compound 223, 2-{(1E)-N-[(3,4-dichlorophenyl)acetyl]ethanehydrazonoyl}-phenyl 4-(trifluoromethyl)benzenesulfonate] was tested. Which IC50 did it give?
Answer: > 50 µM

Question: For `COC(=O)CCc1ccc(S(=O)(=O)Oc2ccccc2/C=N/NC(=O)Cc2cccc(OC)c2)cc1` [Compound 224, methyl 3-(4-{[2-((E)-{[(3-methoxyphenyl)acetyl]hydrazono}methyl)-phenoxy]sulfonyl}phenyl)propanoate], which IC50 is on record?
Answer: > 50 µM

Question: `COc1cccc(CC(=O)N/N=C/c2ccccc2OS(=O)(=O)c2ccc(OCc3cnc(Cl)s3)cc2)c1` [Compound 225, 2-((E)-{2-[2-(3-methoxyphenyl)acetyl]hydrazono}methyl)-phenyl 4-[(2-chloro-1,3-thiazol-5-yl)methoxy]benzenesulfonate] was tested. Which IC50 did it give?
Answer: > 50 µM

Question: `COc1cccc(CC(=O)N/N=C/c2ccccc2OS(=O)(=O)c2ccc(-c3cc(C(F)(F)F)n(C)n3)s2)c1` [Compound 226, 2-((E)-{2-[2-(3-methoxyphenyl)acetyl]hydrazono}methyl)-phenyl 5-[1-methyl-5-(trifluoromethyl)-1H-pyrazol-3-yl]thiophene-2-sulfonate] was tested. Which IC50 did it give?
Answer: < 5 µM

Question: For `O=C(Cc1cccc(Cl)c1)N/N=C/c1ccncc1OS(=O)(=O)c1ccc(C(F)(F)F)cc1` [Compound 227, 4-((E)-{2-[2-(3-chlorophenyl)acetyl]hydrazono}methyl)-pyridin-3-yl 4-(trifluoromethyl)benzenesulfonate], which IC50 is on record?
Answer: < 5 µM

Question: Which IC50 does the source give for `Cc1ccc(S(=O)(=O)Oc2cnccc2/C=N/NC(=O)Cc2cccc(Cl)c2)cc1` [Compound 228, 4-((E)-{2-[2-(3-chlorophenyl)acetyl]hydrazono}methyl)-pyridin-3-yl 4-methylbenzenesulfonate] here?
Answer: < 5 µM

Question: How did the IC50 turn out when `COc1cccc(CC(=O)N/N=C/c2ccncc2OS(=O)(=O)c2ccc(C)cc2)c1` [Compound 229, 4-((E)-{2-[2-(3-methoxyphenyl)acetyl]hydrazono}methyl)-pyridin-3-yl 4-methylbenzenesulfonate] was run?
Answer: < 5 µM

Question: How did the IC50 turn out when `COc1cccc(CC(=O)N/N=C/c2ccncc2OS(=O)(=O)c2ccc(C(F)(F)F)cc2)c1` [Compound 230, 4-((E)-{2-[2-(3-methoxyphenyl)acetyl]hydrazono}methyl)-pyridin-3-yl 4-(trifluoromethyl)benzenesulfonate] was run?
Answer: < 5 µM

Question: With `Cc1ccc(S(=O)(=O)Cc2ccccc2/C=N/NC(=O)Cc2cccc(Cl)c2)cc1` [Compound 231, 2-(3-chlorophenyl)-N′-[(1E)-(2-{[(4-methylphenyl)sulfonyl]methyl}phenyl)-methylene]acetohydrazide] as the molecule, how does the IC50 read?
Answer: < 5 µM

Question: How did the IC50 turn out when `Cc1ccc(S(=O)(=O)Cc2ccccc2/C=N/NC(=O)Cc2ccccc2)cc1` [Compound 232, N′-[(1E)-(2-{[(4-methylphenyl)sulfonyl]methyl}phenyl)-methylene]-2-phenylacetohydrazide] was run?
Answer: < 5 µM

Question: How did the IC50 turn out when `COc1cccc(CC(=O)N/N=C/c2ccccc2CS(=O)(=O)c2ccc(C)cc2)c1` [Compound 233, 2-(3-methoxyphenyl)-N′-[(1 E)-(2-{[(4-methylphenyl)sulfonyl]methyl}phenyl)-methylene]acetohydrazide] was run?
Answer: < 5 µM

Question: Which IC50 does the source give for `Cc1ccc(Oc2ccccc2/C=N/NC(=O)Cc2ccccc2)cc1` [Compound 234, N′-{(1E)-[2-(4-methylphenoxy)phenyl]methylene}-2-phenylacetohydrazide] here?
Answer: > 50 µM

Question: `Cc1ccc(COc2ccccc2/C=N/NC(=O)Cc2ccccc2)cc1` [Compound 235, N′-((1E)-{2-[(4-methylbenzyl)oxy]phenyl}methylene)-2-phenylacetohydrazide] was tested. Which IC50 did it give?
Answer: > 50 µM

Question: For `COc1cccc(CC(=O)N/N=C/c2ccccc2OCc2ccc(C)cc2)c1` [Compound 236, 2-(3-methoxyphenyl)-N′-((1E)-{2-[(4-methylbenzyl)oxy]phenyl}methylene)-acetohydrazide], which IC50 is on record?
Answer: > 50 µM

Question: How did the IC50 turn out when `CC(C)(C)c1ccc(COc2ccccc2/C=N/NC(=O)Cc2cccnc2)cc1` [Compound 237, N′-((1E)-{2-[(4-tert-butylbenzyl)oxy]phenyl}methylene)-2-pyridin-3-ylacetohydrazide] was run?
Answer: > 50 µM

Question: For `O=C(Cc1ccccc1)N/N=C/c1ccccc1OCc1cccc2ccccc12` [Compound 238, N′-{(1E)-[2-(1-naphthylmethoxy)phenyl]methylene}-2-phenylacetohydrazide], which IC50 is on record?
Answer: 5 to 50 µM

Question: How did the IC50 turn out when `COc1cccc(CC(=O)N/N=C/c2ccccc2S(=O)(=O)c2ccc(C)cc2)c1` [Compound 239, 2-(3-methoxyphenyl)-N′-((1E)-{2-[(4-methylphenyl)sulfonyl]phenyl}methylene)-acetohydrazide] was run?
Answer: 5 to 50 µM

Question: How did the IC50 turn out when `CN(c1ccccc1/C=N/NC(=O)c1cc(Cl)ccc1Cl)S(=O)(=O)c1ccc(C(F)(F)F)cc1` [Compound 240, N-(2-{(E)-[(2,5-dichlorobenzoyl)hydrazono]methyl}phenyl)-N-methyl-4-(trifluoromethyl)benzenesulfonamide] was run?
Answer: 1 µM

Question: `O=C(Cc1cccc(Br)c1)N/N=C/c1ccccc1NS(=O)(=O)c1ccc(C(F)(F)F)cc1` [Compound 241, N-[2-((E)-{[(3-bromophenyl)acetyl]hydrazono}methyl)-phenyl]-4-(trifluoromethyl)benzenesulfonamide] was tested. Which IC50 did it give?
Answer: > 50 µM

Question: For `O=C(Cc1cccc(Cl)c1)N/N=C/c1ccccc1NS(=O)(=O)c1ccc(C(F)(F)F)cc1` [Compound 242, N-[2-((E)-{[(3-chlorophenyl)acetyl]hydrazono}methyl)-phenyl]-4-(trifluoromethyl)benzenesulfonamide], which IC50 is on record?
Answer: > 50 µM
